PubChem BioAssay (NCI)
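48-hour exposure; five concentrations; linearly interpolated endpoints. TGI denotes the concentration required for complete inhibition of growth.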

Key:
Test in all cases: NCI anticancer screen, dose series, 48 h
DU-145 prostate = test system: DU-145 prostate
HCC-2998 colon = test system: HCC-2998 colon
HT29 colon = test system: HT29 colon
KM12 colon = test system: KM12 colon
NCI-H460 lung = test system: NCI-H460 lung
NCI/ADR-RES ovarian = test system: NCI/ADR-RES ovarian
PC-3 prostate = test system: PC-3 prostate
SF-268 CNS = test system: SF-268 CNS
SF-539 CNS = test system: SF-539 CNS
SK-MEL-2 melanoma = test system: SK-MEL-2 melanoma
SNB-75 CNS = test system: SNB-75 CNS
T-47D breast = test system: T-47D breast
OVCAR-4 ovarian = test system: OVCAR-4 ovarian

O=c1c2ccccc2c2c1c1c3ccccc3c(=O)c1c1c3ccccc3c(=O)c21
TGI (DU-145 prostate): > 100 µM
TGI (HCC-2998 colon): > 100 µM
TGI (HT29 colon): > 100 µM
TGI (KM12 colon): > 100 µM
TGI (NCI-H460 lung): > 100 µM
TGI (NCI/ADR-RES ovarian): > 100 µM
TGI (PC-3 prostate): > 100 µM
TGI (SF-268 CNS): > 100 µM
TGI (SF-539 CNS): > 100 µM
TGI (SK-MEL-2 melanoma): > 100 µM
TGI (SNB-75 CNS): > 100 µM
TGI (T-47D breast): > 100 µM

CN(C)CS/C(N)=N\C(O)C(Cl)(Cl)Cl (configuration not stated)
TGI (DU-145 prostate): > 100 µM
TGI (HCC-2998 colon): > 100 µM
TGI (HT29 colon): > 100 µM
TGI (KM12 colon): > 100 µM
TGI (NCI-H460 lung): > 100 µM
TGI (NCI/ADR-RES ovarian): > 100 µM
TGI (OVCAR-4 ovarian): > 100 µM
TGI (PC-3 prostate): > 100 µM
TGI (SF-268 CNS): > 100 µM
TGI (SK-MEL-2 melanoma): > 100 µM
TGI (SNB-75 CNS): > 100 µM
TGI (T-47D breast): > 100 µM

COc1cc(S(=O)(=O)Nc2ccc(-c3csc(N4C(=O)C(C)SC4c4ccccc4O)n3)cc2)ccc1Cl (configuration not stated)
TGI (DU-145 prostate): > 100 µM
TGI (HT29 colon): > 100 µM
TGI (KM12 colon): > 100 µM
TGI (NCI/ADR-RES ovarian): > 100 µM
TGI (PC-3 prostate): > 100 µM
TGI (SF-268 CNS): 49.9 µM
TGI (SF-539 CNS): > 100 µM
TGI (SK-MEL-2 melanoma): 91.7 µM
TGI (SNB-75 CNS): 95.7 µM
TGI (T-47D breast): 31 µM

O=C(Nc1ccccc1)Nn1c(-c2cccs2)nc2ccc(I)cc2c1=O
TGI (DU-145 prostate): 52.3 µM
TGI (HCC-2998 colon): 55.3 µM
TGI (HT29 colon): 84.7 µM
TGI (KM12 colon): 94.8 µM
TGI (NCI-H460 lung): > 100 µM
TGI (NCI/ADR-RES ovarian): > 100 µM
TGI (OVCAR-4 ovarian): 90.4 µM
TGI (PC-3 prostate): > 100 µM
TGI (SF-268 CNS): > 100 µM
TGI (SF-539 CNS): > 100 µM
TGI (SNB-75 CNS): 25.6 µM
TGI (T-47D breast): 17.2 µM

COP(=O)(OC)C(O)/C=C/c1ccco1 (configuration not stated)
TGI (DU-145 prostate): > 100 µM
TGI (HT29 colon): > 100 µM
TGI (KM12 colon): > 100 µM
TGI (NCI/ADR-RES ovarian): > 100 µM
TGI (OVCAR-4 ovarian): > 100 µM
TGI (PC-3 prostate): > 100 µM
TGI (SF-268 CNS): > 100 µM
TGI (SK-MEL-2 melanoma): > 100 µM
TGI (T-47D breast): > 100 µM

CC1C2(C)OC(=N)C(C#N)(C(c3ccco3)O2)C1(C#N)C#N (configuration not stated)
TGI (DU-145 prostate): > 100 µM
TGI (HCC-2998 colon): 55.5 µM
TGI (HT29 colon): > 100 µM
TGI (KM12 colon): > 100 µM
TGI (NCI-H460 lung): 44.6 µM
TGI (NCI/ADR-RES ovarian): > 100 µM
TGI (PC-3 prostate): > 100 µM
TGI (SF-268 CNS): > 100 µM
TGI (SF-539 CNS): 35.9 µM
TGI (SK-MEL-2 melanoma): 75.9 µM
TGI (SNB-75 CNS): > 100 µM
TGI (T-47D breast): 45.9 µM

Fc1ccc(NCn2nc(COc3ccccc3Cl)n(/N=C/c3ccc(-c4ccc(Cl)cc4Cl)o3)c2=S)cc1Cl
TGI (DU-145 prostate): > 100 µM
TGI (HT29 colon): > 100 µM
TGI (KM12 colon): 99 µM
TGI (NCI-H460 lung): > 100 µM
TGI (NCI/ADR-RES ovarian): > 100 µM
TGI (OVCAR-4 ovarian): > 100 µM
TGI (PC-3 prostate): > 100 µM
TGI (SF-268 CNS): > 100 µM
TGI (SF-539 CNS): > 100 µM
TGI (SK-MEL-2 melanoma): 62.6 µM
TGI (T-47D breast): > 100 µM

COc1ccc(N=Nc2c(C)c(C#N)c(=S)n(C3OC(COC(C)=O)C(OC(C)=O)C(OC(C)=O)C3OC(C)=O)c2-c2ccccc2)cc1 (configuration not stated)
TGI (DU-145 prostate): 19.6 µM
TGI (HCC-2998 colon): > 100 µM
TGI (HT29 colon): > 100 µM
TGI (KM12 colon): 20.6 µM
TGI (NCI-H460 lung): > 100 µM
TGI (NCI/ADR-RES ovarian): 24.4 µM
TGI (OVCAR-4 ovarian): 12.1 µM
TGI (PC-3 prostate): 21.3 µM
TGI (SK-MEL-2 melanoma): 22.8 µM
TGI (T-47D breast): 41.2 µM

O=C(O)CSc1nnc(CCCCCCCCc2nnc(SCC(=O)O)o2)o1
TGI (DU-145 prostate): > 100 µM
TGI (HCC-2998 colon): > 100 µM
TGI (HT29 colon): > 100 µM
TGI (KM12 colon): > 100 µM
TGI (NCI-H460 lung): > 100 µM
TGI (NCI/ADR-RES ovarian): > 100 µM
TGI (OVCAR-4 ovarian): > 100 µM
TGI (PC-3 prostate): > 100 µM
TGI (SF-268 CNS): > 100 µM
TGI (SK-MEL-2 melanoma): > 100 µM
TGI (SNB-75 CNS): 73.1 µM
TGI (T-47D breast): > 100 µM

Cn1c(=O)c2nc3nnc(C#N)c(N)n3c2n(C)c1=O
TGI (DU-145 prostate): > 100 µM
TGI (HCC-2998 colon): > 100 µM
TGI (HT29 colon): > 100 µM
TGI (KM12 colon): > 100 µM
TGI (NCI-H460 lung): > 100 µM
TGI (NCI/ADR-RES ovarian): > 100 µM
TGI (OVCAR-4 ovarian): > 100 µM
TGI (PC-3 prostate): > 100 µM
TGI (SF-268 CNS): > 100 µM
TGI (SF-539 CNS): > 100 µM
TGI (SK-MEL-2 melanoma): > 100 µM
TGI (T-47D breast): > 100 µM
